From patent publication US20090253209A1, “Method of obtaining BZM purity, quantity of [123I]IBZM labeled ligand and quantity of BZM free ligand” (ATOMIC ENERGY COUNCIL - INSTITUTE OF NUCLEAR ENERGY RESEARCH, priority 2008, published 2009)

Columns and labels:
D2/D3 receptor (D2/D3R) = conditions: in rats; compared with [^123I] IBZM; cited from earlier work
[1] = solution stability test of BZM solution by HPLC; type: physicochemical; conditions: BZM dissolved in DMSO, room temperature, three days
From the text: (7) For the solution stability test, a sum of BZM solution is put under a room temperature to be processed with HPLC analysis for three days, as shown in FIG. 12. Consequently, the difference of BZM retention time is 0.64%; the resolution difference is 5.81%; the purity difference is −0.37%; the difference of a linear least square regression slope is −3.18%; and linear correlation coefficients are all greater than 0.9997.

solution stability (in words) [1]: good stability | purity difference (solution stability) ([1]; HPLC analysis): −0.37%
Structure (SMILES): CCN1CCC[C@H]1CNC(=O)c1c(O)cccc1OC [BZM, (S)-(-)-2-hydroxy-6-methoxy-N-[(1-ethyl-2-pyrrolidinyl)methyl]benzamide]
bonding to D2/D3 receptor relative to [^123I] IBZM (D2/D3 receptor (D2/D3R)): far small bonding to D2/D3 receptor (D2/D3R) than [^123I] IBZM
